Values quoted from earlier work in patent US20210137911A1, “NOVEL CHRONOTHERAPY BASED ON CIRCADIAN RHYTHMS” (THE TRUSTEES OF THE UNIVERSITY OF PENNSYLVANIA, priority 2014, published 2021).
Where two headings read alike, the source gives them in different places.

Settings: cited from earlier work
[1] = half-life of therapeutic compound as listed in Table 1

| SMILES | ½ Life (in vivo) [h] | also measured |
| --- | --- | --- |
| CC[C@H](C)[C@H](NC(=O)[C@@H]1CCCN1C(=O)CNC(=O)[C@H](Cc1ccccc1)NC(=O)[C@H](CC(N)=O)NC(=O)[C@H](CC(N)=O)NC(=O)[C@H](CO)NC(=O)[C@H](CO)NC(=O)[C@H](Cc1c[nH]cn1)NC(=O)[C@@H](NC(=O)[C@H](CC(C)C)NC(=O)[C@H](Cc1ccccc1)NC(=O)[C@H](CC(N)=O)NC(=O)[C@H](C)NC(=O)[C@H](CC(C)C)NC(=O)[C@H](CCCNC(=N)N)NC(=O)[C@H](CCC(N)=O)NC(=O)[C@@H](NC(=O)[C@H](C)NC(=O)[C@@H]1CSSC[C@H](NC(=O)[C@@H](N)CCCCN)C(=O)N[C@@H](CC(N)=O)C(=O)N[C@@H]([C@@H](C)O)C(=O)N[C@@H](C)C(=O)N[C@@H]([C@@H](C)O)C(=O)N1)[C@@H](C)O)C(C)C)C(=O)N[C@@H](CC(C)C)C(=O)N1CCC[C@H]1C(=O)N1CCC[C@H]1C(=O)N[C@H](C(=O)N[C@@H](CC(N)=O)C(=O)N[C@H](C(=O)NCC(=O)N[C@@H](CO)C(=O)N[C@@H](CC(N)=O)C(=O)N[C@H](C(=O)N[C@@H](Cc1ccc(O)cc1)C(N)=O)[C@@H](C)O)C(C)C)[C@@H](C)O [Pramlintide] | 0.8 |  |
| C[C@]12C=CC(=O)C=C1CC[C@@H]1[C@@H]2[C@@H](O)C[C@@]2(C)[C@H]1CC[C@]2(O)C(=O)CO [Prednisolone] | 2 |  |
| COc1cc(NC(C)CCCN)c2ncccc2c1 (stereo not shown) [Primaquine] |  | ½ Life [1]: 3.7 h |
| CCC1(c2ccccc2)C(=O)NCNC1=O [Primidone] |  | ½ Life [1]: 3 h |
| CCN(CC)CCOC(=O)c1ccc(N)cc1 [Procaine] |  | ½ Life [1]: 0.1283 h |
| NC(=O)CCC/N=C(\c1ccc(Cl)cc1)c1cc(F)ccc1O [Progabide] |  | ½ Life [1]: 4 h |
| CC(C)c1cccc(C(C)C)c1O [Propofol] | 1 |  |
| CCCc1cc(=O)[nH]c(=S)[nH]1 [Propylthiouracil] | 2 |  |
| CN(C)C(=O)Oc1ccc[n+](C)c1 [Pyridostigmine] | 3 |  |
| CCOC(=O)[C@H](CCc1ccccc1)N[C@@H](C)C(=O)N1Cc2ccccc2C[C@H]1C(=O)O [Quinapril] | 2 |  |
| COCCCOc1ccnc(C[S+]([O-])c2nc3ccccc3[nH]2)c1C (stereo not shown) [Rabeprazole] | 1 |  |
| CCC(=O)NCC[C@@H]1CCc2ccc3c(c21)CCO3 [Ramelteon] | 1 |  |
| CCOC(=O)[C@H](CCc1ccccc1)N[C@@H](C)C(=O)N1[C@H](C(=O)O)C[C@@H]2CCC[C@@H]21 [Ramipril, reference compound] | 2 | minimum reported half-life (see Table 1): 2 h |
| C#CCN[C@@H]1CCc2ccccc21 [Rasagiline] | 3 |  |
| CNC(=O)c1cnn(-c2nc(N)c3ncn([C@@H]4O[C@H](CO)[C@@H](O)[C@H]4O)c3n2)c1 [Regadenoson] | 0.033 |  |
| CCOc1cc(CC(=O)N[C@@H](CC(C)C)c2ccccc2N2CCCCC2)ccc1C(=O)O [Repaglinide] | 1 |  |
| O=P(O)(O)C(O)(Cc1cccnc1)P(=O)(O)O [Risedronate] | 1.5 |  |
| CC(NCCc1ccc(O)cc1)C(O)c1ccc(O)cc1 (stereo not shown) [Ritodrine] | 1.7 |  |
| CCN(C)C(=O)Oc1cccc([C@H](C)N(C)C)c1 [Rivastigmine] | 1.5 |  |
| CN(C)CCc1c[nH]c2ccc(Cn3cncn3)cc12 [Rizatriptan] | 2 |  |
| C=CC[N+]1([C@H]2C[C@H]3[C@@H]4CC[C@H]5C[C@H](O)[C@@H](N6CCOCC6)C[C@]5(C)[C@H]4CC[C@]3(C)[C@H]2OC(C)=O)CCCC1 [Rocuronium] | 1 |  |
| CN(CCOc1ccc(CC2SC(=O)NC2=O)cc1)c1ccccn1 (stereo not shown) [Rosiglitazone] | 3 |  |
| CCCN(CCc1cccs1)[C@H]1CCc2c(O)cccc2C1 [Rotigotine] | 5 |  |
| CCCCP(=O)(O)CCCN [SGS742] | 4 |  |
| OCc1cc(C(O)CNCCCCCCOCCCCc2ccccc2)ccc1O (stereo not shown) [Salmeterol] | 5.5 |  |
| O=C(Oc1ccccc1C(=O)O)c1ccccc1O [Salsalate] | 1 |  |
| C#CCN(C)[C@H](C)Cc1ccccc1 [Selegiline] | 1.2 |  |
